Measurements: ChEMBL document CHEMBL5131394, “Structure-activity and mechanistic studies of non-peptidic inhibitors of the PLK1 polo box domain identified through REPLACE” (Eur J Med Chem, 2022)

What was measured:
[1] = target: T1, Serine/threonine-protein kinase PLK1 (Homo sapiens, UniProt P53350); test: Binding affinity to recombinant human N-terminal GST-tagged PLK1-PBD (367 to 603 end residue) expressed in Escherichia coli using MAGPMQS[pT]PLNGAKK as substrate incubated for 45 mins by fluorescence polarization assay
PC-3 [2] = test: Antiproliferative activity against human PC-3 cells assessed as cell viability measured after 72 hrs by MTT assay; format: functional, cell-based; conditions: PC-3, 72 h
A549 = test: Antiproliferative activity against human A549 cells assessed as cell viability measured after 72 hrs by MTT assay; format: functional, cell-based; conditions: A549, 72 h
[3] = Antiproliferative activity against human HCT116-p53-null cells assessed as cell viability measured after 72 hrs by MTT assay; format: functional, cell-based
[4] = Antiproliferative activity against human RPE cells expressing wild-type PLK1 assessed as reduction in cell viability measured after 72 hrs by MTT assay; format: functional, cell-based
[5] = Antiproliferative activity against human RPE cells expressing PLK1 C67V mutant assessed as reduction in cell viability measured after 72 hrs by MTT assay; format: functional, cell-based
HeLa = test: Antiproliferative activity against human HeLa cells assessed as cell viability measured after 72 hrs by MTT assay; format: functional, cell-based
[6] = target: T1, Serine/threonine-protein kinase PLK1; test: Binding affinity to full length PLK1 in human PC-3 cells assessed as stabilized protein incubated for 2 hrs followed by aggregation temperature at 56.2 degC by […] analysis; format: cell-based
[7] = Antiproliferative activity against human p53HCT116 cells assessed as cell viability measured after 72 hrs by MTT assay; format: functional, cell-based; conditions: p53HCT116, 72 h
PC-3 [8] = test: Induction of mitotic arrest in human PC-3 cells assessed as accumulation of cells at G2/M phase; format: functional

T1 sequence (P53350 whole entry): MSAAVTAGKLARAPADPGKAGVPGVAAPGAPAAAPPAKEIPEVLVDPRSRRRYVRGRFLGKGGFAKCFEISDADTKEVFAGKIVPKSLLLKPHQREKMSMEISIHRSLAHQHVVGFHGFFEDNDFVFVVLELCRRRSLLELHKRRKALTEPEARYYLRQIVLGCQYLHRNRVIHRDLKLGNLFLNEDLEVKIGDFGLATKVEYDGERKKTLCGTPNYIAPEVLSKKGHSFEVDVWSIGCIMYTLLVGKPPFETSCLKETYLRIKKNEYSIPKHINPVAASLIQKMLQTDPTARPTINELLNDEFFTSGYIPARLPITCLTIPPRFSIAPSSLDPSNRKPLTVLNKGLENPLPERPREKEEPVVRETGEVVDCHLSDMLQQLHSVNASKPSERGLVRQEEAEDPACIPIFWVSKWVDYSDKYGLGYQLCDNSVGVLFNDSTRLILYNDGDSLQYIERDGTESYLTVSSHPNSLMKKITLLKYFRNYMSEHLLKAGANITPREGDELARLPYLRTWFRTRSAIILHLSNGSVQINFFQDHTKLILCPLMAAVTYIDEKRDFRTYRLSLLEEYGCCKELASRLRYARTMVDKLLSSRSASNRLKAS

SMILES | IC50 [1] [µM] | also measured
CCCCCc1ccc(C(=O)Nc2ccccc2C(=O)O)cc1 | 224 | 
CCCCCCCCc1ccc(CCNc2ccccc2C(=O)O)cc1 | 118 | 
CCCCCCCCc1ccc(C(=O)Nc2c(O)cccc2C(=O)O)cc1 | 12 | 
CCCCCCCCc1ccc(CNc2ccccc2C(=O)O)cc1 | 9.8 | 
CCCCCCCCc1ccc(CNc2ccc(C)cc2C(=O)O)cc1 | > 600 | 
CCCCCCCCc1ccc(CNc2cccc(CC)c2)cc1 | > 600 | 
CCCCCCCCCCCCc1ccc(C(=O)Nc2ccccc2C(=O)O)cc1 |  | IC50 (PC-3 [2]): 14 µM
CCCCCCCCc1ccc(CNc2cccc(OP(=O)(O)O)c2)cc1 | > 600 | 
CCCCCCCCc1ccc(C(=O)Nc2ccccc2[N+](=O)[O-])cc1 | > 600 | 
CCCCCCCCc1ccc(C(=O)Nc2ccccc2C(=O)O)cc1 |  | IC50 (A549): 2.8 µM; IC50 [3]: 8 µM; IC50 [4]: 33 µM; IC50 [5]: 25.9 µM
CCCCCCCCc1ccc(C(=O)Nc2ccccc2S(N)(=O)=O)cc1 | 259 | 
CCCCCCCCc1ccc(C(=O)Nc2ccccc2B(O)O)cc1 | > 600 | 
CCCCCCCCc1ccc(C(=O)Nc2ccc(OC)cc2C(=O)O)cc1 | 5.9 | IC50 (HeLa): 8 µM
CCCCCCCCc1ccc(C(=O)Nc2ccc(C)cc2C(=O)O)cc1 | 2.2 | EC50 [6]: 0.82 µM; IC50 (PC-3 [2]): 16.3 µM; IC50 (A549): 5.1 µM; IC50 [3]: 10 µM; IC50 [7]: 17.4 µM; IC50 [4]: 13.4 µM; IC50 [5]: 12.6 µM
CCCCCCCCc1ccc(C(=O)Nc2cccc(OC)c2C(=O)O)cc1 | 29.6 | 
CCCCCCCCc1ccc(C(=O)Nc2cccc([N+](=O)[O-])c2C(=O)O)cc1 | 6.1 | 
CCCCCCCCc1ccc(C(=O)Nc2cccc(F)c2C(=O)O)cc1 | 11.1 | IC50 (PC-3 [2]): 11.6 µM; IC50 (A549): 2.9 µM; IC50 [3]: 10 µM; IC50 [4]: 8.79 µM; IC50 [5]: 9.1 µM
CCCCCCCCc1ccc(C(=O)Nc2cccc(O)c2C(=O)O)cc1 | 7.9 | 
CCCCc1ccc(C(=O)Nc2ccccc2C(=O)O)cc1 | > 600 | 
CCCCCCCCc1ccc(C(=O)Nc2cc(F)cc(F)c2C(=O)O)cc1 | 30.6 | 
CCCCCCCCc1ccc(CNc2cccc(F)c2C(=O)O)cc1 | 18.8 | 
CCCCCCCCc1ccc(CNc2cc(C)ccc2C(=O)O)cc1 | 21.7 | 
CCCCCCCCc1ccc(C(=O)Nc2ccccc2C(=O)OCC)cc1 | > 600 | IC50 (HeLa): > 100 µM; IC50 (PC-3 [2]): > 100 µM
CCCCCCCCc1ccc(C(=O)Nc2cccc(C(F)(F)F)c2C(=O)O)cc1 | 29.4 | 
CCCCCCCCc1ccc(C(=O)Nc2cccc(OP(=O)(O)O)c2)cc1 | 98.3 | 
CCCCCCCCc1ccc(C(=O)Nc2cccc(Cl)c2C(=O)O)cc1 | 25.3 | 
CCCCCCCCc1ccc(C(=O)Nc2cc(C)ccc2C(=O)O)cc1 | 4 | IC50 (PC-3 [2]): 18.8 µM; IC50 (A549): 3.5 µM; IC50 [3]: 11.4 µM; IC50 [7]: 24.2 µM
CC[C@@H]1C(=O)N(C)c2cnc(Nc3ccc(C(=O)NC4CCN(C)CC4)cc3OC)nc2N1C1CCCC1 [BI-2536] |  | Activity (PC-3 [8]): >75%
